Tests used:
Experiment in all cases: MIC, NCCLS broth microdilution
Format in all cases: cell-based
[1] = test system: Pseudomonas aeruginosa 1973E
How it was run: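 MIC read by eye as the lowest concentration giving no visible growth after overnight incubation (30° C. or 37° C.), following NCCLS M7-A5 microdilution with ≤1% final DMSO. For combinations, partner compounds (formula II, III-XIII) were fixed at 4 μg/mL each while formula I compounds were titrated.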

[2] = test system: Enterobacter cloacae ATCC13047/CRO-R
Protocol: (§1) Antimicrobial activity of the compounds and of their combinations was determined against a selection of organisms according to the standard procedures described by the National Committee for Clinical Laboratory Standards (National Committee for Clinical Laboratory. Standards (2000). Methods for Dilution Antimicrobial Susceptibility Tests for Bacteria That Grow Aerobically-Fifth Edition: Approved Standard M7-A5. NCCLS, Wayne, Pa., USA).
(§2) In all cases the final concentration of DMSO incubated with the bacteria is less than or equal to 1%. […] Plates were incubated overnight at an appropriate temperature (30° C. or 37° C.) and optical densities assessed by eye. The MIC value is defined as the lowest compound concentration completely inhibiting visible growth of the test organism. When combinations between compounds of formula I with compounds of formula II and are evaluated the compounds of formula I are tested in dilution series as described above while the compounds of formula II and III-XIII were present in all wells at a constant concentration of 4 μg/mL each.

[3] = test system: Enterobacter aerogenes B1
Protocol: as §1, §2

Enterobacter cloacae P99 = test system: Enterobacter cloacae P99
Enterobacter cloacae MRW = test system: Enterobacter cloacae MRW
Protocol: as §2

[4] = test system: Pseudomonas aeruginosa MK1184
Protocol: as §1, §2

Serratia marcescens S6 = test system: Serratia marcescens S6
Protocol: as §1, §2

[5] = with clavulanate (clavulanic acid)
[6] = + compound 323 and clavulanate, 4 mg/L each

CC1C(NC(=O)C(=NOCc2cc(=O)c(O)cn2O)c2csc(N)n2)C(=O)N1S(=O)(=O)O (stereo not shown) [Compound 1]
>32 µg/mL: MIC of antibiotic (Enterobacter cloacae P99; antibiotic alone, no inhibitor) | MIC of antibiotic ([4]; antibiotic alone, no inhibitor) | MIC of antibiotic at fixed inhibitor concentration of 4 mg/L ([4]; with 206 and clavulanate) | MIC of antibiotic at fixed inhibitor concentration of 4 mg/L ([4]; with 501) | MIC of antibiotic at fixed inhibitor concentration of 4 mg/L [4, 5]
32 mg/L: Minimal Inhibitory Concentration of antibiotic ([3]; antibiotic alone) | Minimal Inhibitory Concentration of antibiotic at fixed inhibitor concentration of 4 mg/L (Enterobacter cloacae MRW; + clavulanate 4 mg/L) | Minimal Inhibitory Concentration of antibiotic at fixed inhibitor concentration of 4 mg/L (Enterobacter cloacae MRW; + compound 501 4 mg/L)
4 mg/L: Minimal Inhibitory Concentration of antibiotic at fixed inhibitor concentration of 4 mg/L [3, 6] | Minimal Inhibitory Concentration of antibiotic at fixed inhibitor concentration of 4 mg/L (Enterobacter cloacae MRW; [6])
>32 mg/L: Minimal Inhibitory Concentration of antibiotic at fixed inhibitor concentration of 4 mg/L ([2]; + clavulanate 4 mg/L) | Minimal Inhibitory Concentration of antibiotic at fixed inhibitor concentration of 4 mg/L ([2]; + compound 206 4 mg/L) | Minimal Inhibitory Concentration of antibiotic at fixed inhibitor concentration of 4 mg/L ([2]; + compound 501 4 mg/L) | Minimal Inhibitory Concentration of antibiotic ([2]; antibiotic alone) | Minimal Inhibitory Concentration of antibiotic at fixed inhibitor concentration of 4 mg/L ([3]; + clavulanate 4 mg/L) | Minimal Inhibitory Concentration of antibiotic at fixed inhibitor concentration of 4 mg/L ([3]; + compound 501 4 mg/L) | Minimal Inhibitory Concentration of antibiotic (Enterobacter cloacae MRW; antibiotic alone)
0.25 µg/mL: MIC of antibiotic at fixed inhibitor concentration of 4 mg/L (Serratia marcescens S6; with 111 and clavulanate) | MIC of antibiotic at fixed inhibitor concentration of 4 mg/L (Serratia marcescens S6; with 323 and clavulanate)
32 µg/mL: MIC of antibiotic at fixed inhibitor concentration of 4 mg/L (Enterobacter cloacae P99; [5])
2 µg/mL: MIC of antibiotic at fixed inhibitor concentration of 4 mg/L ([1]; with 102 and clavulanate)
4 µg/mL: MIC of antibiotic at fixed inhibitor concentration of 4 mg/L ([1]; with 111 and clavulanate) | MIC of antibiotic at fixed inhibitor concentration of 4 mg/L ([1]; with 202 and clavulanate) | MIC of antibiotic at fixed inhibitor concentration of 4 mg/L ([1]; with 206 and clavulanate) | MIC of antibiotic at fixed inhibitor concentration of 4 mg/L ([1]; with 323 and sulbactam) | MIC of antibiotic at fixed inhibitor concentration of 4 mg/L (Enterobacter cloacae P99; with 102 and clavulanate) | MIC of antibiotic at fixed inhibitor concentration of 4 mg/L (Enterobacter cloacae P99; with 111 and clavulanate) | MIC of antibiotic at fixed inhibitor concentration of 4 mg/L (Enterobacter cloacae P99; with 323 and clavulanate) | MIC of antibiotic at fixed inhibitor concentration of 4 mg/L (Enterobacter cloacae P99; with 323 and sulbactam) | MIC of antibiotic at fixed inhibitor concentration of 4 mg/L (Enterobacter cloacae P99; with 324 and clavulanate) | MIC of antibiotic at fixed inhibitor concentration of 4 mg/L ([4]; with 102 and clavulanate) | MIC of antibiotic at fixed inhibitor concentration of 4 mg/L ([4]; with 323 and sulbactam) | MIC of antibiotic at fixed inhibitor concentration of 4 mg/L (Serratia marcescens S6; with 206 and clavulanate)
8 µg/mL: MIC of antibiotic at fixed inhibitor concentration of 4 mg/L ([1]; with 323 and clavulanate) | MIC of antibiotic at fixed inhibitor concentration of 4 mg/L ([1]; with 324 and clavulanate) | MIC of antibiotic at fixed inhibitor concentration of 4 mg/L ([1]; with 501) | MIC of antibiotic at fixed inhibitor concentration of 4 mg/L [1, 5] | MIC of antibiotic at fixed inhibitor concentration of 4 mg/L (Enterobacter cloacae P99; with 206 and clavulanate) | MIC of antibiotic at fixed inhibitor concentration of 4 mg/L ([4]; with 103 and clavulanate) | MIC of antibiotic at fixed inhibitor concentration of 4 mg/L ([4]; with 111 and clavulanate) | MIC of antibiotic at fixed inhibitor concentration of 4 mg/L ([4]; with 202 and clavulanate)
16 µg/mL: MIC of antibiotic ([1]; antibiotic alone, no inhibitor) | MIC of antibiotic at fixed inhibitor concentration of 4 mg/L (Enterobacter cloacae P99; with 202 and clavulanate) | MIC of antibiotic at fixed inhibitor concentration of 4 mg/L (Enterobacter cloacae P99; with 501) | MIC of antibiotic at fixed inhibitor concentration of 4 mg/L ([4]; with 323 and clavulanate)
16 mg/L: Minimal Inhibitory Concentration of antibiotic at fixed inhibitor concentration of 4 mg/L ([3]; + compound 206 4 mg/L) | Minimal Inhibitory Concentration of antibiotic at fixed inhibitor concentration of 4 mg/L (Enterobacter cloacae MRW; + compound 206 4 mg/L)
8 mg/L: Minimal Inhibitory Concentration of antibiotic at fixed inhibitor concentration of 4 mg/L [2, 6]
0.5 µg/mL: MIC of antibiotic at fixed inhibitor concentration of 4 mg/L (Serratia marcescens S6; with 202 and clavulanate)

Reference: patent publication US20160122320A1, “USEFUL COMBINATIONS OF MONOBACTAM ANTIBIOTICS WITH BETA-LACTAMASE INHIBITORS” (Basilea Pharmaceutica AG, priority 2005, published 2016)
